Here are results for four compounds from ChEMBL document CHEMBL1139023, “The reversed binding of beta-phenethylamine inhibitors of DPP-IV: X-ray structures and properties of novel fragment and elaborated inhibitors” (Bioorg Med Chem Lett, 2006).

Assay [1] deals with Dipeptidyl peptidase 4 (Sus scrofa, UniProt P22411). As to the kind of experiment: (§1) Inhibition of DPP4 by continuous fluorimetric assay.
Assay [2] addresses Dipeptidyl peptidase 4 (Sus scrofa) (UniProt P22411). Put plainly: Inhibition of DPP4 by continuous fluorimetric assay at 100 nM.
Assay [3] has as its target Dipeptidyl peptidase 4 (Homo sapiens, UniProt P27487). The assay is described as §1.

Chain of Dipeptidyl peptidase 4 (Sus scrofa, UniProt P22411) (P22411 whole entry): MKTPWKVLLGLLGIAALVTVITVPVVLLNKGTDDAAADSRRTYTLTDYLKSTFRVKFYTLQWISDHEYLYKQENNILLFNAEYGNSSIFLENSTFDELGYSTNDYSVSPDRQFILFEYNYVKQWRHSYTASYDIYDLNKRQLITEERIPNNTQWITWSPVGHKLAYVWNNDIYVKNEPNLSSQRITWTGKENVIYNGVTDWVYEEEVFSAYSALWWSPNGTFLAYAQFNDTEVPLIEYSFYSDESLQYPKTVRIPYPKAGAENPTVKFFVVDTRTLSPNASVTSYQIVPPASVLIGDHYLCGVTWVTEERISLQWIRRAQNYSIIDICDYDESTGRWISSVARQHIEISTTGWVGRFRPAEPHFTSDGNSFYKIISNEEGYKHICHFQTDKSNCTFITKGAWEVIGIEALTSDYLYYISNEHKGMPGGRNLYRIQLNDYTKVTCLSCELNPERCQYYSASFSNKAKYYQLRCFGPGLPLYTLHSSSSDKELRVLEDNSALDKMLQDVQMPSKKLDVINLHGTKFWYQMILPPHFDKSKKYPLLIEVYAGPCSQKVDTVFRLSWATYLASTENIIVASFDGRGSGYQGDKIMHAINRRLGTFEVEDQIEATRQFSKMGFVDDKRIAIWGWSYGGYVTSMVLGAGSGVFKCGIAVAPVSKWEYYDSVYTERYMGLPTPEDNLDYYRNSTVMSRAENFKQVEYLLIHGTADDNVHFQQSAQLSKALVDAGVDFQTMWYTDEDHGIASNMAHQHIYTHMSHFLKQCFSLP
Chain of Dipeptidyl peptidase 4 (Homo sapiens, UniProt P27487) (P27487 whole entry): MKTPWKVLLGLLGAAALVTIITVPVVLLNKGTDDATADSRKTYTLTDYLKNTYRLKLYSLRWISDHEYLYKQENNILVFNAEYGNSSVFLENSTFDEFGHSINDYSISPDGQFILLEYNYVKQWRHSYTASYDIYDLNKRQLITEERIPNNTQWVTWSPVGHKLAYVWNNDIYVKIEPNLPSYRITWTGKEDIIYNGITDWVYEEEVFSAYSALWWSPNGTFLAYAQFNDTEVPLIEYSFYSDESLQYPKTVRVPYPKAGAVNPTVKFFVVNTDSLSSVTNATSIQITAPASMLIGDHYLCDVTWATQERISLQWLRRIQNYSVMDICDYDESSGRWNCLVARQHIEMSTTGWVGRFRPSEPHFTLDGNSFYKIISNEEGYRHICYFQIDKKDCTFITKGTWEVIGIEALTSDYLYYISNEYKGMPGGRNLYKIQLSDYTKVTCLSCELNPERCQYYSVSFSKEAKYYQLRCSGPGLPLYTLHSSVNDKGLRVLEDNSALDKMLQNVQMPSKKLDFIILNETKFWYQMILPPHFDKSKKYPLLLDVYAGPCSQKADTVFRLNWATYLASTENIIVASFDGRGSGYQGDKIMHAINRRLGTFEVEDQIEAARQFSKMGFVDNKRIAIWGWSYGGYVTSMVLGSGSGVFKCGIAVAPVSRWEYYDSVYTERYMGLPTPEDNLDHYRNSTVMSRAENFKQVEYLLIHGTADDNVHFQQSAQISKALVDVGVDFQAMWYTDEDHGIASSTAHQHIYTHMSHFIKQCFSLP
Chain of Dipeptidyl peptidase 4 (Sus scrofa) (P22411 whole entry, looked up): as the sequence (P22411 whole entry) above

In general, IC50 refers to the concentration needed to halve the response being measured. Regarding `N[C@@H](CC(=O)N1CCC[C@H]1CNC(=O)c1ccccc1)Cc1ccccc1F`, the midpoint of inhibition in assay [1], the IC50, lay at 0.41 µM.

In assay [1], `NCC(c1ccccc1Cl)N1CCOCC1` (stereo not given) gave an IC50 of 46 µM.

In general, inhibition refers to the share of the control response that was lost under treatment. Higher therefore signals a strong effect. `NC(=O)[C@@H]1Cc2ccccc2CN1C(=O)C[C@H](N)Cc1ccccc1F` yielded an inhibition in assay [2] of 60%. In assay [3], half-maximal inhibition (IC50) was put at 0.023 µM.

In assay [1], `NCC1(c2ccccc2)CCCC1` gave an IC50 of 30 µM.
